Patent US20250171420A1 (Monte Rosa Therapeutics, Inc., priority 2022, published 2025)

Legend:
CK1α = molecular target: T1, CK1α (Homo sapiens, UniProt P48729); experiment: CK1α NanoBit Assay (HiBiT-tagged CSNK1A1, HEK293 clonal lines); assay type: cell-based; details: HEK293 HiBiT-CSNK1A1/LgBiT cells, 24 h incubation
T1 construct: HEK293 clonal lines with CRISPR KI HiBiT tag on CSNK1A1
How it was run: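 HEK293 clones carrying a CRISPR knock-in HiBiT tag on CSNK1A1 and stably expressing LgBiT are treated with compound for 24 hours at 37° C, 5% CO2, then read by luminescence. Response is normalized as 100*(S−N)/(P−N) against plate negative and positive controls, and DC50 values are derived.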

CRBN/DDB1 = CRBN/DDB1 (Homo sapiens, UniProt Q96SW2); experiment: HTRF binding assay (displacement of Cy5-thalidomide probe from CRBN/DDB1); details: CRBN/DDB1 2.5 nM, Cy5-Thalidomide 100 nM, 30 min; geometric mean; read-out: HTRF_Thali_Disp_DR_geo_IC50
Sequence of CRBN/DDB1 (Q96SW2 whole entry, species assumed): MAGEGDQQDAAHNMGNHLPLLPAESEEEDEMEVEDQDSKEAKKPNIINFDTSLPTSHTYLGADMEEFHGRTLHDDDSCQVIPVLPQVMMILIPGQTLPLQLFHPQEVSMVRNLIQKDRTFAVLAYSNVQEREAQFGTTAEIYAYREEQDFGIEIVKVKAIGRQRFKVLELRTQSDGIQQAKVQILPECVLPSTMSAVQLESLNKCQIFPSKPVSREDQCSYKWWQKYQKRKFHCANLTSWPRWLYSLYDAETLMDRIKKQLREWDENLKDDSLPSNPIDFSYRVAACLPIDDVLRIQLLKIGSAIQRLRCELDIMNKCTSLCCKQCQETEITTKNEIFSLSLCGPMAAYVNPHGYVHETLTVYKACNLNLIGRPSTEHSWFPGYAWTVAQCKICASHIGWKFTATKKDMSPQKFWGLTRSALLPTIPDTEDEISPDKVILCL
Sequence of CRBN/DDB1 (Q16531 whole entry partner, species assumed): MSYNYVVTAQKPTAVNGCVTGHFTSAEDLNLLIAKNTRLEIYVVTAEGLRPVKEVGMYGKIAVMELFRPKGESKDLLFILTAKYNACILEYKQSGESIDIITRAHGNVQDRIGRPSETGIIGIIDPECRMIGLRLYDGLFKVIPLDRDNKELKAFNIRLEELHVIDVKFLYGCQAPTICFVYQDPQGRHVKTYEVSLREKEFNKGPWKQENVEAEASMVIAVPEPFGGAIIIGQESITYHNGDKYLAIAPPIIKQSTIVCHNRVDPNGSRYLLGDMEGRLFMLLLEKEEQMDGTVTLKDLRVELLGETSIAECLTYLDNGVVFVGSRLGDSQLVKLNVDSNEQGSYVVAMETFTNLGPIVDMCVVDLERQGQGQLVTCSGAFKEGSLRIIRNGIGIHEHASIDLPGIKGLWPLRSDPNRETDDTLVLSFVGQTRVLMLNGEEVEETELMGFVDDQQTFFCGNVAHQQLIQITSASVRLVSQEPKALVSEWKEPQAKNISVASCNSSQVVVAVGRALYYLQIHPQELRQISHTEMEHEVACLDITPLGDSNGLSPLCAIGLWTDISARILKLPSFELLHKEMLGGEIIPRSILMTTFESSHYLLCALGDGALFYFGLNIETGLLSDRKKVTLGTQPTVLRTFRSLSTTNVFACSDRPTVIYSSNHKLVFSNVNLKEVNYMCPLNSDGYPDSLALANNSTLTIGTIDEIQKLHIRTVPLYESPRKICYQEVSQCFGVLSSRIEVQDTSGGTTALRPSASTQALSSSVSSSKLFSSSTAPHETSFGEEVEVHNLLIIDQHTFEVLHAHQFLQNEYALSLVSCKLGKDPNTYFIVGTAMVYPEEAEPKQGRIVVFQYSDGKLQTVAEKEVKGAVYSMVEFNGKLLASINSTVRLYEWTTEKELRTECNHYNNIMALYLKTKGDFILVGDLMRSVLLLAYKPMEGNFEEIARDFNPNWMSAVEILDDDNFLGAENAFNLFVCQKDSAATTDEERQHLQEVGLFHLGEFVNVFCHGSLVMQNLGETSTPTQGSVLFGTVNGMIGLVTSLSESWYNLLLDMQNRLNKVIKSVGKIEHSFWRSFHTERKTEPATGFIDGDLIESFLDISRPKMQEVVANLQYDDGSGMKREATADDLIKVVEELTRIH
How it was run: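 Compounds in a 10-point threefold dilution series were incubated 30 min at ambient temperature with 2.5 nM CRBN/DDB1, 100 nM Cy5-thalidomide probe and terbium anti-His donor (HEPES/NaCl/TCEP/EDTA/Tween20 buffer). IC50 came from 4-parameter fits of the 665/620 nm HTRF ratio; Ki used Cheng-Prusoff on geometric-mean IC50.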

T1 sequence (P48729 whole entry): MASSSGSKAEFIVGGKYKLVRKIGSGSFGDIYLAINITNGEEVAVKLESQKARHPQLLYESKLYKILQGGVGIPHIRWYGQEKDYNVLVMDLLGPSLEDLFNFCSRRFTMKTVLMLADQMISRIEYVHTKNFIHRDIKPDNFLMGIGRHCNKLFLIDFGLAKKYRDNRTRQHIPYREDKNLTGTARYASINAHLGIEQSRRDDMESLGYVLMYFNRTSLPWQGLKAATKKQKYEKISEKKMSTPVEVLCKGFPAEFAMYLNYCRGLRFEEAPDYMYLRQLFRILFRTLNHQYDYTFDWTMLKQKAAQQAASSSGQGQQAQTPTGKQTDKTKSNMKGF
T1 sequence (Q96SW2 whole entry, further chain): as the sequence (Q96SW2 whole entry, species assumed) above
T1 sequence (Q16531 2-1140 partner limits assumed): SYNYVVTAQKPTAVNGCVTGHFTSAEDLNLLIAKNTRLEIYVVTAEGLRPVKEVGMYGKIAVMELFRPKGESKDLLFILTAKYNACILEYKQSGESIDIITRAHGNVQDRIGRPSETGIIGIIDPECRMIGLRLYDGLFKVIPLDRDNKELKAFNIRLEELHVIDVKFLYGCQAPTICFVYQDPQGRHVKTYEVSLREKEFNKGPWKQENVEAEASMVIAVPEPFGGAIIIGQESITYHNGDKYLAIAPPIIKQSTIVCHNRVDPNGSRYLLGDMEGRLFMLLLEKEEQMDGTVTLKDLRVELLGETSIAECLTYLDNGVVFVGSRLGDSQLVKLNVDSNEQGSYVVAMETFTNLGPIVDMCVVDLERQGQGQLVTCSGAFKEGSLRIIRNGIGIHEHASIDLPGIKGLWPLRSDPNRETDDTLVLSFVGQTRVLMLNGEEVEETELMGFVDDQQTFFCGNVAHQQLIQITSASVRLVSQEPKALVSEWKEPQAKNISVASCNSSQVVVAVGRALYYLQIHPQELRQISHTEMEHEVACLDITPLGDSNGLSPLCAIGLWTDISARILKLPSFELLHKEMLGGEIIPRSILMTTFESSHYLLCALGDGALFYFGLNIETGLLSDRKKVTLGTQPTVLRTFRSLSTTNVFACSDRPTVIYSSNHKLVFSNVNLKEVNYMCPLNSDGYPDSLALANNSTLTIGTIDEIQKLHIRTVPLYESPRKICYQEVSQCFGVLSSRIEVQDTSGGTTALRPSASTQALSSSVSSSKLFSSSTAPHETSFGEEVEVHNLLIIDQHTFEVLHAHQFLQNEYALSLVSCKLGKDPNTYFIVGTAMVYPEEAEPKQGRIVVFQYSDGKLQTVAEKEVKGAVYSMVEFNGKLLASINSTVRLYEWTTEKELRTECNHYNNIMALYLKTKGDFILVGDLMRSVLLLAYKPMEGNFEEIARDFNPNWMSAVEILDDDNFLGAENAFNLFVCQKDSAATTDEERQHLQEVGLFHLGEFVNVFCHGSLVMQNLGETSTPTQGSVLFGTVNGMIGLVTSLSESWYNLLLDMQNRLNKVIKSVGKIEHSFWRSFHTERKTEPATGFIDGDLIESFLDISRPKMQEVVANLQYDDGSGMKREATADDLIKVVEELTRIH

| Compound | DC50 (CK1α) [µM] | IC50 (CRBN/DDB1) [nM] |
| --- | --- | --- |
| COCC1c2cc(C3CC3)ccc2CN1C(=O)Nc1ccc2c(c1)CN(C1CCC(=O)NC1=O)C2=O (stereo not drawn) [Compound 333, 6-cyclopropyl-N-(2-(2,6-dioxopiperidin-3-yl)-1-oxoisoindolin-5-yl)-1-(methoxymethyl)isoindoline-2-carboxamide] | < 0.1 | 100 to 1000 |
| COCC1c2cc(C)ccc2CN1C(=O)Nc1ccc2c(c1)CN(C1CCC(=O)NC1=O)C2=O (stereo not drawn) [Compound 336, N-(2-(2,6-dioxopiperidin-3-yl)-1-oxoisoindolin-5-yl)-1-(methoxymethyl)-6-methylisoindoline-2-carboxamide] | < 0.1 | 100 to 1000 |
| O=C1CCC(N2Cc3cc(NC(=O)N4CCc5c(C6COC6)cccc54)ccc3C2=O)C(=O)N1 (stereo not drawn) [Compound 342, N-(2-(2,6-dioxopiperidin-3-yl)-1-oxoisoindolin-5-yl)-4-(oxetan-3-yl)indoline-1-carboxamide] | < 0.1 | 100 to 1000 |
| COC(C)c1cccc2c1CCN2C(=O)Nc1ccc2c(c1)CN(C1CCC(=O)NC1=O)C2=O (stereo not drawn) [Compound 343, N-(2-(2,6-dioxopiperidin-3-yl)-1-oxoisoindolin-5-yl)-4-(1-methoxyethyl)indoline-1-carboxamide] | < 0.1 | 100 to 1000 |
| O=C1CCC(N2Cc3cc(NC(=O)N4CCc5cc(C6CCOC6)ccc54)ccc3C2=O)C(=O)N1 (stereo not drawn) [Compound 345, N-(2-(2,6-dioxopiperidin-3-yl)-1-oxoisoindolin-5-yl)-5-(tetrahydrofuran-3-yl)indoline-1-carboxamide] | < 0.1 | < 100 |
| O=C1CCC(N2Cc3cc(NC(=O)N4CCc5cc(C6COC6)ccc54)ccc3C2=O)C(=O)N1 (stereo not drawn) [Compound 346, N-(2-(2,6-dioxopiperidin-3-yl)-1-oxoisoindolin-5-yl)-5-(oxetan-3-yl)indoline-1-carboxamide] | < 0.1 | < 100 |
| O=C1CCC(N2Cc3cc(NC(=O)N4CCc5ccc(C6COC6)cc54)ccc3C2=O)C(=O)N1 (stereo not drawn) [Compound 347, N-(2-(2,6-dioxopiperidin-3-yl)-1-oxoisoindolin-5-yl)-6-(oxetan-3-yl)indoline-1-carboxamide] | 0.1 to 1 | 100 to 1000 |
| O=C1CCC(N2Cc3cc(NC(=O)N4CCc5cc(C6CCOCC6)ccc54)ccc3C2=O)C(=O)N1 (stereo not drawn) [Compound 349, N-(2-(2,6-dioxopiperidin-3-yl)-1-oxoisoindolin-5-yl)-5-(tetrahydro-2H-pyran-4-yl)indoline-1-carboxamide] | < 0.1 | 100 to 1000 |
| C[C@@H]1Cc2cccc(F)c2N1C(=O)Nc1ccc2c(c1)CN(C1CCC(=O)NC1=O)C2=O (stereo partly drawn) [Compound 350, (2R)—N-(2-(2,6-dioxopiperidin-3-yl)-1-oxoisoindolin-5-yl)-7-fluoro-2-methylindoline-1-carboxamide] | < 0.1 | 100 to 1000 |
| CN1CCN(c2ccc3c(c2)CCN3C(=O)Nc2ccc3c(c2)CN(C2CCC(=O)NC2=O)C3=O)CC1 (stereo not drawn) [Compound 351, N-(2-(2,6-dioxopiperidin-3-yl)-1-oxoisoindolin-5-yl)-5-(4-methylpiperazin-1-yl)indoline-1-carboxamide] | 0.1 to 1 | 100 to 1000 |
| COC[C@H]1Cc2ccccc2N1C(=O)Nc1ccc2c(c1)CN(C1CCC(=O)NC1=O)C2=O (stereo partly drawn) [Compound 352, (2R)—N-(2-(2,6-dioxopiperidin-3-yl)-1-oxoisoindolin-5-yl)-2-(methoxymethyl)indoline-1-carboxamide] | < 0.1 | 100 to 1000 |
| CC1Cc2cc(C(F)(F)F)ncc2N1C(=O)Nc1ccc2c(c1)CN(C1CCC(=O)NC1=O)C2=O (stereo not drawn) [Compound 353, N-(2-(2,6-dioxopiperidin-3-yl)-1-oxoisoindolin-5-yl)-2-methyl-5-(trifluoromethyl)-2,3-dihydro-1H-pyrrolo[2,3-c]pyridine-1-carboxamide] | < 0.1 | 100 to 1000 |
| C[C@@H]1Cc2c(F)cccc2N1C(=O)Nc1ccc2c(c1)CN(C1CCC(=O)NC1=O)C2=O (stereo partly drawn) [Compound 354, (2R)—N-(2-(2,6-dioxopiperidin-3-yl)-1-oxoisoindolin-5-yl)-4-fluoro-2-methylindoline-1-carboxamide] | < 0.1 | 100 to 1000 |
| O=C1CCC(N2Cc3cc(NC(=O)N4CCc5cc(-n6cccn6)ccc54)ccc3C2=O)C(=O)N1 (stereo not drawn) [Compound 355] | < 0.1 | < 100 |
| C[C@@H]1Cc2ccc(F)cc2N1C(=O)Nc1ccc2c(c1)CN(C1CCC(=O)NC1=O)C2=O (stereo partly drawn) [Compound 356, (2R)—N-(2-(2,6-dioxopiperidin-3-yl)-1-oxoisoindolin-5-yl)-6-fluoro-2-methylindoline-1-carboxamide] | < 0.1 | 100 to 1000 |
| O=C1CCC(N2Cc3cc(NC(=O)N4CCc5ccc(C6CCC6)cc54)ccc3C2=O)C(=O)N1 (stereo not drawn) [Compound 358, 6-cyclobutyl-N-(2-(2,6-dioxopiperidin-3-yl)-1-oxoisoindolin-5-yl)indoline-1-carboxamide] | < 0.1 | 100 to 1000 |
| O=C1CCC(N2Cc3cc(NC(=O)N4CCc5ccc(C6CCOC6)cc54)ccc3C2=O)C(=O)N1 (stereo not drawn) [Compound 364, N-(2-(2,6-dioxopiperidin-3-yl)-1-oxoisoindolin-5-yl)-6-(tetrahydrofuran-3-yl)indoline-1-carboxamide] | 0.1 to 1 | 100 to 1000 |
| O=C1CCC(N2Cc3cc(NC(=O)N4CCc5ccc(C6CCOCC6)cc54)ccc3C2=O)C(=O)N1 (stereo not drawn) [Compound 365, N-(2-(2,6-dioxopiperidin-3-yl)-1-oxoisoindolin-5-yl)-6-(tetrahydro-2H-pyran-4-yl)indoline-1-carboxamide] | 0.1 to 1 | 100 to 1000 |
